# Marks after values point to notes of the source that are not given here.
# Assays:
# [1] = tested on: Colorado potato beetle (CPB); assay: Open Y-track olfactometer behavioral bioassay, optical isomers vs solvent control; assay type: in vivo, Leptinotarsa decemlineata; conditions: for orientation preference (in words): serial source loads 0.0001 to 1.0 μg vs solvent control, male and female
# Procedure: Chemical blends and plant foliage were tested for behavioral activity in an open Y-track olfactometer modified after Visser and Piron (Visser, J. H., and P. G. M. Piron, Proceedings of the Section Experimental and Applied Entomology of the Netherlands Entomological Society Amsterdam, 9: 41-46 (1998)) and described in detail by Dickens (Dickens, J. C., Agric. Forest Entomol., 1: 47-54 (1999)). In brief, odorous stimuli emanating from volatile collections from CPB males feeding on potato plants or the male-specific compound on filter paper discs (2.5 cm dia.; Whatman™ #1 filter paper) in Ehrlenmeyer flasks were delivered to either side of the device. Hydrocarbon free air that was humidified by passing through distilled water carried the odor molecules to either arm of the bioassay apparatus. Treatments were replenished after 30 min of use in the bioassay apparatus. Airflow was regulated to 1 l/min by flowmeters. Experiments were conducted in a darkened room at 22° C. in which the only source of light was that associated with the bioassay device. For all bioassays, at least 20 males and 20 females were tested.
# Volatile collections from male CPB feeding for three hours on a potato plant and serial dilutions of the male specific compound were tested as 10 μl aliquots placed on a filter paper disc as described above. The male specific compound was tested at 1.0 μg/10 μl solvent (hexane) and in a dilution series ranging from 0.0001 to 1.0 μg/10 μl solvent.
# Prior to testing at age 7-14 days, unmated insects were held individually in 5.5 oz. cups, provided with fresh potato foliage on a continuous basis, and maintained under incubator conditions of a 16:8 light:dark cycle, 80-90% R.H., and “day” and “night” temperatures of 25° C. and 23° C., respectively. On the day of testing, insects were transferred to smaller 1 oz. cups and held for 1-3 hrs with moist filter paper but no foliage, then held in darkness for an additional 1-2 hrs.
# Individual testing in a darkened room at 22° C. began by allowing the beetle to climb onto or be placed approximately midway up the vertical rod of the “T.” In response to a positive phototaxis to light from a flashlight mounted above the “T” and negative geotaxis, the beetles generally climbed upward. Once the insect began waving its antennae, presumably in response to test odors, its forward progress continued. Orientation was scored as soon as the test insect had moved completely from the horizontal to one of the 45 extension arms of the bioassay device. Following each test, the bioassay device was cleaned with acetone to remove contamination left by the insect. For any given series of tests, approximately half were done with the treatment and associated test apparatus on one side, and half were done with them on the other side.
# Laboratory bioassays were assessed for significant differences by the hypothesis on binomial proportions based on the standard normal approximation (Brase, C. H., and C. P. Brase (1983), Understanding Statistics, Lexington, Mass.: D. C. Heath).
# [2] = tested on: Colorado potato beetle (CPB); assay: Field test, baited pitfall traps; assay type: in vivo, Leptinotarsa decemlineata
# Procedure: Insects: Insects were maintained under the same regimen as for laboratory bioassays. Prior to release in the field, adult CPB were combined into pint containers with moistened paper and potato foliage in groups of 25. Insects were removed from foliage ca. 3 hours prior to release.
# Chemical treatments: (S)-CPB I vs. control. CPB I was dissolved into a carrier solution of 20% polyethylene glycol, 42% methanol, 25% glycerol, and 13% distilled water at a concentration of 1 μg/μl. For treatment lures, 500 μl were injected into 1″ long cigarette filters (500 μg CPBI/lure). Control lures consisted of 1″ cigarette filters treated with 500 μl of the carrier solution. Lures were prepared and placed into plastic zip-lock bags for transport to the field. (S)-CPB I+3-component plant blend vs. 3-component plant blend. (Z)-3-hexenyl acetate, (±)-linalool, and methyl salicylate (10 μl each) were added to 3 ml of the carrier solution for a total concentration of 1%. This solution was split into two 1.5 ml samples and CPB I dissolved into one of the samples at a concentration of 1 μg/μl. One treatment consisted of 500 μl of 1% 3-component plant blend injected into 1″ cigarette filters, 500 μl of 1% 3-component plant blend+1 μg/μl CPB I (500 μg CPB I/lure) injected into 1″ cigarette filters comprised the second treatment. Lures were prepared and placed into zip-lock bags for transport to the field.
# Experimental procedure: Six pitfall traps (22 cm diam.×21 cm depth) were set in a hexagonal pattern 6 m diameter in an isolated grass field mowed one day prior to release of insects. One lure was attached to a 1 m vertical yellow posts set through the center of each pitfall trap, with treatment and controls alternating around the hexagonal array. Tacky-trap was laced along the rim of each pitfall trap, and on the center post at trap level, to prevent insect escape. […]
# Statistical analysis: Field tests were assessed for significant differences by a paired t-test (Ostle, B., Statistics in Research (1963), 2nd ed., The Iowa State University Press, Ames, Iowa).
# [3] = tested on: antennal olfactory receptors (short sensillum on the penultimate antennal segment of a CPB); assay: Single sensillum (single cell) recording of receptor neuron response; design: species or system Leptinotarsa decemlineata; conditions: 100 ng source load; solvent control 8
# Procedure: Sensitivity of antennal olfactory receptors for the racemate and optical isomers of the male specific compound were tested using coupled GC/EAD and single sensillum recording techniques. GC/EAD tests involved injection of 1 μl of serial dilutions of 3,7-dimethyl-2-oxo-oct-6-ene-1,3-diol (CPB I).
compound,measurement,setting,value
"CC(C)=CCC[C@](C)(O)C(=O)CO [(S)-CPB I, (S)-3,7-dimethyl-2-oxo-oct-6-ene-1,3-diol]",individuals attracted,"[1]; both sexes, from threshold through highest source load tested (1 μg)",80% to 90
same,"behavioral threshold, females","[1]; female CPB, vs solvent control",0.01 μg source load
same,"behavioral threshold, males","[1]; male CPB, vs solvent control",0.001 μg source load
same,orientation preference (in words),[1],attractive
same,orientation preference (in words),[1]; listed as (S)-enantiomer,oriented preferentially
same,"Mean number of CPB captured, Males","[2]; 500 μg CPB I/lure, mean of three replicates, 100 released, control 2.67",9.00*
same,"Mean number of CPB captured, Females","[2]; 500 μg CPB I/lure, mean of three replicates, control 1.33",7.33*
same,"Mean number of CPB captured, Total","[2]; combined mean of six replicates, control 2.00",8.17**
same,action potentials during 500 msec following the initial phasic increase,[3],25 action potentials

# Reference: patent publication US6958360B2, “Attractant pheromone for the Colorado potato beetle” (The United States of America as represented by the …, priority 2001, dated 2005)
